Like-named read-outs stand apart in the source and are kept apart here.
Assays:
[1] = biological target: GABAa receptor (α1β2γ2) (Homo sapiens, UniProt P14867+P47870); assay: in vitro GABAa receptor (α1β2γ2) cellular activity assay, manual whole-cell patch clamp, enhancement of currents induced by 1 µM GABA; assay type: cell-based; settings: for Emax compared to Sage-217: conclusion in words from Table 1-2
Procedure: The cells used in this experiment were derived from a CHO cell line that stably expressed normal GABAa receptor functions after transfection with human GABAa receptor α1, β2, and γ2 subunit cDNAs. The cell line was constructed by B'sys GmbH. The cells were cultured in a medium (purchased from Invitrogen) containing the following components: DMEM culture medium; 10% (v/v) inactivated fetal bovine serum; 5 µg/mL Puromycin; 250 µg/mL Hygromycin B; and 100 µg/mL Zeocin. The cells were grown in culture dishes containing the above medium and cultured in an incubator at 37 °C with 5% CO2. 12 h to 24 h before the electrophysiological experiment, the cells were transferred onto circular glass slides placed in culture dishes, and were grown under the same medium and culture conditions as above. The density of cells on each circular glass slide was required to meet the requirement that the overwhelming majority of cells were independent and individual.
In this experiment, a manual patch-clamp system HEKA EPC10 USB signal amplifier and digital conversion system (purchased from HEKA Electronics, Germany) were used for whole-cell current recording. The circular glass slides with surface-grown CHO GABAa cells (see the cell culture and requirement section above) were taken out from the culture dishes and then placed into an electrophysiological recording chamber under an inverted microscope. The recording chamber was continuously perfused with extracellular fluid (approximately 1-2 mL/min). In the experiment, the whole-cell current recording technique was employed to record chloride ion currents of GABAa channels. 1 µM GABA was used to activate chloride ion currents of GABAa channels on each cell as an initial control (the reason for using 1 µM GABA concentration was that: this concentration was an effective activation concentration for the GABAa ion channel agonist GABA on the cells used in this experiment, falling between 10% and 20%). Unless otherwise specified, the experiment was performed at conventional room temperature (about 25 °C), and only cells meeting the electrophysiological recording criteria were adopted. In the experiment, the cells were ruptured and sealed, and were clamped at -80 mV after entering a whole-cell state. 1 µM GABA acted on the cells through the drug perfusion system to induce chloride ion currents of GABAa channels; the action time was about 4 s, and the current magnitude was used as the initial control value. Subsequently, the cells were perfused and incubated with the test concentration compound for 3 min, and then a mixed solution of 1 µM GABA and the corresponding test concentration compound was applied to act on the cells to induce currents, so as to observe the enhancing effect of the test compound on the currents induced by 1 µM GABA. When the cell state stabilized, the test compound would be applied from low to high concentrations to act on the same cell. In the experiment, to avoid current reduction caused by desensitization of GABAa ion channels, the interval time for the test substance acting on the cells through the drug perfusion system was at least 180 s.
The experimental data were analyzed using data analysis software provided by HEKA Patchmaster, Microsoft Excel, and Graphpad Prism.

[2] = test system: mice with PTZ-induced convulsions; assay: in vivo efficacy experiment in PTZ-induced epilepsy mouse model; parameters: species or system C57 mice; settings: for Survival rate: 60 min before PTZ 120 mg/kg s.c., 30 min observation; for Number of clonic seizures / Number of tonic seizures / Clonic seizure latency period / Tonic seizure latency period: Mean ± SEM; for Clonic seizure latency period / Tonic seizure latency period: no seizure in 30 min recorded as 1800 s; for protective effects against acute epileptic seizures: conclusion in words
Procedure: Male C57 mice, purchased from SPF (Suzhou) Biotechnology Co., Ltd.
PTZ: a 120 mg/kg PTZ solution (administration volume: 10 mL/kg) was prepared with normal saline as the solvent.
Test compounds: solutions of the test compounds at 3/1/0.3 mg/kg (administration volume: 10 mL/kg) were prepared with Vehicle in section 1.4 as the solvent.
One hour before the test, the experimental animals were transferred into an operation room for acclimation.
The mice were randomly grouped, marked, and weighed, with 10 mice in each group. At 60 min before PTZ administration, the test compounds and Vehicle were separately orally administered.
The PTZ solution was administered subcutaneously before experimental observation, and this time point was recorded as the observation starting point.
Immediately after PTZ administration, the animals were placed in observation boxes and observed for 30 min. The following observations of the animals were recorded:
Clonic seizure: the animal has a generalized myoclonus that lasts for more than 3 s and is accompanied by falling.
Tonic seizure: the limbs are straightened at a 90° angle to the torso.
All metrology data were expressed as mean ± standard error of mean (Mean ± SEM), and the Prism 8.0 statistical software was used for data testing and analysis.

[3] = in vivo pharmacokinetic experiment in mice; parameters: species or system ICR mice; settings: male, ICR, mouse; oral intragastric administration 10 mg/kg, single, plasma
Procedure: Male ICR mice were subjected to oral intragastric administration. The plasma concentrations of the compounds of the present disclosure in the mice were measured, the PK parameters were calculated, and pharmacokinetic evaluation was performed on the compounds of the present disclosure.
Drug preparation: according to the weight of the weighed drug, the preparation volume was calculated; 5% of DMSO and 5% of HS-15 were added sequentially; after the drug was fully dissolved, 90% of a 20% aqueous β-cyclodextrin solution was added, and the mixture was well mixed for later use.
Route of administration: oral intragastric administration, at a dose of 10 mg/kg.
Administration frequency and duration: single administration.
ICR mice were stratified according to body weight and then randomly grouped, with 9 mice per group. The mice were fasted overnight prior to the experiment. The mice were subjected to oral intragastric administration. At 0 h, 0.167 h, 0.333 h, 0.5 h, 1 h, 2 h, 4 h, 6 h, 8 h, 12 h, and 24 h, 50 µL of blood was collected from the fundus vein of each mouse into a sample tube containing heparin sodium as an anticoagulant, and then the tube was placed in wet ice and centrifuged at 4000 r·min^-1 for 10 min. The plasma was separated, and cryopreserved in a refrigerator at -80 °C for testing.
The concentrations of the plasma samples were measured by high-performance liquid chromatography-tandem mass spectrometry (LC-MS/MS). The retention times of the compounds and internal standard, chromatographic acquisitions, and integrals of chromatograms were processed using the software Analyst (AB SCIEX), and statistical analysis of the data was performed using the software Microsoft office. The plasma concentrations were processed using a non-compartmental model of the pharmacokinetic software WinNonlin™ Version 6.3 (Pharsight, Mountain View, CA), and the pharmacokinetic parameters were calculated using a linear log-trapezoidal method. Table 4. Results of pharmacokinetic experiment in mice

[4] = positive modulator enhancing GABAa receptor currents induced by 1 µM GABA, CHO cells, read-out: EC50

Chain of GABAa receptor (α1β2γ2) (P14867 28-456): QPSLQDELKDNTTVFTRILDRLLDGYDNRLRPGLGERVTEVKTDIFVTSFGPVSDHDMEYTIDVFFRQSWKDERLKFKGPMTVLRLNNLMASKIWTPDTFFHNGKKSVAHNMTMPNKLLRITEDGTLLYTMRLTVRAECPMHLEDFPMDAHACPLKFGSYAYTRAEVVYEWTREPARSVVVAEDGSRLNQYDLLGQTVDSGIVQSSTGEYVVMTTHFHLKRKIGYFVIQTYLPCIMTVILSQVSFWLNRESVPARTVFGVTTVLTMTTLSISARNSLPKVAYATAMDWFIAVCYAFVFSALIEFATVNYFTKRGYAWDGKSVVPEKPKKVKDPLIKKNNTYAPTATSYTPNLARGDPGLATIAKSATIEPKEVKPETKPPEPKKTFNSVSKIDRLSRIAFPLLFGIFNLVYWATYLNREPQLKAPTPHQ
Chain of GABAa receptor (α1β2γ2) (P47870 25-512 limits assumed): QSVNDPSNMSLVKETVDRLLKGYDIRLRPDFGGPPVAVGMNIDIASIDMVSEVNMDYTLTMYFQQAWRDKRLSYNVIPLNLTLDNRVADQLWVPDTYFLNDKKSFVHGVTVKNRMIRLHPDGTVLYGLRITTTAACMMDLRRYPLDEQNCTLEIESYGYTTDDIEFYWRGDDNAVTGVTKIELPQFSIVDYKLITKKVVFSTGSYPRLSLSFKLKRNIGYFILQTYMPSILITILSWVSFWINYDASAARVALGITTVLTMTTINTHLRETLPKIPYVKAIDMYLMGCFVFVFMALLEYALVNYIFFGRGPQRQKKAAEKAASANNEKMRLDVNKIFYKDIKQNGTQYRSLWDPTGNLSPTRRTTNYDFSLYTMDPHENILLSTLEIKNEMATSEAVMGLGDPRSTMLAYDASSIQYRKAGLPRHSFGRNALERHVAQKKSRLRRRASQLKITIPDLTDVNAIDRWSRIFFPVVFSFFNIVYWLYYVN
Chain of GABAa receptor (α1β2γ2) (P18507 40-475 partner): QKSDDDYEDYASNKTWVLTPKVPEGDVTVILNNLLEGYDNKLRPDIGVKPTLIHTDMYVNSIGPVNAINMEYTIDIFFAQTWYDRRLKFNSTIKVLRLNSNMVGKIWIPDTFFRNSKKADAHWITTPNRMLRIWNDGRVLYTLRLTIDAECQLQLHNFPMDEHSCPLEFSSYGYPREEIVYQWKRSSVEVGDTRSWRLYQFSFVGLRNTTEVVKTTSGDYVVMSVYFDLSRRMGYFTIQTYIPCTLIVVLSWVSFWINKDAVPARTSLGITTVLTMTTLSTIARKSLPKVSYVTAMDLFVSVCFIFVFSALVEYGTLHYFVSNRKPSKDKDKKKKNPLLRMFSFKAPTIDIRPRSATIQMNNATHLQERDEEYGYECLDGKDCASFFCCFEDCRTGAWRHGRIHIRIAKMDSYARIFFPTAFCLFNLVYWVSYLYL

Compound | Emax compared to Sage-217 [1] | EC50 [1, 4] | Survival rate ([2]; dose 0.3 mg/kg p.o.) | Survival rate ([2]; dose 1 mg/kg p.o.) | Survival rate ([2]; dose 3 mg/kg p.o.) | Number of clonic seizures ([2]; dose 3 mg/kg p.o.) | Number of tonic seizures ([2]; dose 3 mg/kg p.o.) | Clonic seizure latency period ([2]; dose 3 mg/kg p.o.) | Tonic seizure latency period ([2]; dose 3 mg/kg p.o.) | protective effects against acute epileptic seizures ([2]; extremely low dose (0.3 mpk)) | protective effects against acute epileptic seizures ([2]; low dose (1 mpk)) | AUC(0-t) [3] | Cmax [3] | Tmax [3] | half-life [3] | EC50 [1] | activation at 0.1 µM ([1]; single concentration 0.1 µM, relative enhancement amplitude of GABAa receptor currents induced by 1 µM GABA, CHO cells, read-out: Agonist ratio)
C[C@@H]1C[C@H](C(=O)Cn2ncnn2)[C@@]2(C)CC[C@H]3[C@@H](CC[C@@H]4C[C@](C)(O)[C@@H](C)C[C@@H]43)[C@H]12 [Example 9, 1-((2S,3S,5R,8R,9R,10S,13S,14S,15R,17S)-3-Hydroxy-2,3,13,15-tetramethylhexadecahydro-1H-cyclopenta[a]phenanthren-17-yl)-2-(2H-tetrazol-2-yl)ethan-1-one] | lower Emax compared to Sage-217 | 40 nM | 10% | 100% | 100% | 0.2±0.1 | 0.0±0.0 | 1649.7 ± 105.0 s | 1800.0 ± 0.0 s | partial protective effects | significant protective effects | 23600 ng·h/mL | 3480 ng/mL | 0.33 h | 2.35 h | – | –
C[C@@]1(O)CC[C@H]2[C@H](CC[C@@H]3[C@@H]2CC[C@]2(C)[C@@H](C(=O)Cn4cc(C#N)cn4)CC[C@@H]32)C1 [Sage-217, reference compound] | – | – | 0% | 100% | 100% | 0.9±0.3 | 0.0±0.0 | 1012.3 ± 181.4 s | 1800.0 ± 0.0 s | – | significant protective effects | 9160 ng·h/mL | 1510 ng/mL | 1 h | – | 120 nM | –
C[C@H]1C[C@H]2[C@H](CC[C@@H]3[C@@H]2CC[C@]2(C)[C@@H](C(=O)Cn4ncnn4)CC[C@@H]32)C[C@]1(C)O [Example 20, 1-((2S,3S,5R,8R,9R,10S,13S,14S,17S)-3-Hydroxy-2,3,13-trimethylhexadecahydro-1H-cyclopenta[a]phenanthren-17-yl)-2-(2H-tetrazol-2-yl)ethan-1-one] | lower Emax compared to Sage-217 | 110 nM | 10% | 100% | – | 0.0±0.0 | 0.0±0.0 | 1800.0 ± 0.0 s | 1800.0 ± 0.0 s | partial protective effects | significant protective effects | 32200 ng·h/mL | 2580 ng/mL | 0.5 h | 2.59 h | – | 970%

Reference: patent EP4711377A1, “STEROID COMPOUND, PREPARATION METHOD THEREFOR, AND USE THEREOF” (Shujing Biopharma Co., Ltd, priority 2023, dated 2024)
